Laboratory results from US10301261B2, “Substituted indoles as modulators of ROR-gamma” (Vitae Pharmaceuticals, LLC, priority 2015, dated 2019).

Experiments:
[1] = target: full-length RORγt in Jurkat cells (Homo sapiens (Human), UniProt P51449); assay: RORγt 5×RORE Assay in Jurkat Cells (Assay 2); type: cell-based; conditions: RORγt 5×RORE Nanoluc reporter
Procedure: [formula] RORγt 5×RORE Assay in Jurkat Cells (Assay 2)
Compounds described herein were tested for RORγ inverse agonist activity in a cell-based, transcriptional activity assay. […] (Promega, Cat. # N1021) using KpnI and HindIII restriction sites. […] Tested compounds were added to the cells in the same media (final concentration of DMSO was 0.1% (v/v)), and the plates were incubated at 37° C./5% CO2 for 16-18 hrs. Luciferase activity in the conditioned supernatants was determined with NanoGlo® assay reagents (Promega, Cat.# N1130).

[2] = target: recombinant RORγ Ligand Binding Domain (LBD) protein (Homo sapiens (Human), UniProt P51449); assay: Radio-Ligand RORγ Binding Assay (Assay 1); conditions: radio-ligand 25-hydroxy [26,27-3H]-cholesterol competition
Sequence of recombinant RORγ Ligand Binding Domain (LBD) protein (P51449 269-508): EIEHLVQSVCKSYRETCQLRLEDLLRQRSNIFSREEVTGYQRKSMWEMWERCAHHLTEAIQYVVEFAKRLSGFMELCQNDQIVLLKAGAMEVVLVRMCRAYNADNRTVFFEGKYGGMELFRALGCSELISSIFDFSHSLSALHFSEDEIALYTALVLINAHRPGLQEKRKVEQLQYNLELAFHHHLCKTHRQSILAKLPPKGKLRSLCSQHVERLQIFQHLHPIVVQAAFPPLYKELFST
Procedure: Radio-Ligand RORγ Binding Assay (Assay 1)
Compounds described herein were tested for ability to bind to RORγ in a cell-free competition assay with commercially available radio-ligand (RL), 25-hydroxy [26,27-^3H]-cholesterol (PerkinElmer, Cat. # NET674250UC), for a ligand binding site on a recombinant RORγ Ligand Binding Domain (LBD) protein expressed as a 6×His-Glutathione-S-Transferase (GST) fusion. […] The plate was shaken at 700 rpm for 20 min and incubated for 10 min at rt, after which 40 μL of poly-Lys YSi SPA beads (PerkinElmer, Cat. # RPNQ0010) were added to achieve 50 μg of the beads per well. The plate was incubated on an orbital shaker for 20 min and then for 10 min without agitation at rt. SPA signal for tritium beta radiation was registered on PerkinElmer Microbeta plate reader. […] The percent inhibition vs. concentration data were fit into a four-parameter model, and IC50 values were calculated from the fit as the concentrations corresponding to the inflection points on the dose-response curves. […]

Sequence of full-length RORγt in Jurkat cells (P51449 other isoform, or with tags, fused parts or gaps): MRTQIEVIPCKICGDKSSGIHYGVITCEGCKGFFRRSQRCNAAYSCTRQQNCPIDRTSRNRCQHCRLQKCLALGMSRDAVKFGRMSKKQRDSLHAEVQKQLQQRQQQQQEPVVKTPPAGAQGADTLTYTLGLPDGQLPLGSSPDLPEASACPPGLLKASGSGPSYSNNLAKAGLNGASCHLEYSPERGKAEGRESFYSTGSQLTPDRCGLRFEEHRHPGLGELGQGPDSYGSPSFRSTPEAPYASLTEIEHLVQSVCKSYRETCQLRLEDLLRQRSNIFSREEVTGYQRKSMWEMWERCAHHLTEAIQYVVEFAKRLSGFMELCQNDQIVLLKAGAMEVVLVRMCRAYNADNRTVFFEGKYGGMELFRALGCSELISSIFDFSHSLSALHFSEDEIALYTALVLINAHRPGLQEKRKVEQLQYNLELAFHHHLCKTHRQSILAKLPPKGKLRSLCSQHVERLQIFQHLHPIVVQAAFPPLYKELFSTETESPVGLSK

Row | SMILES | IC50 [1] [nM] | Ki [2] [nM]
1 | CCS(=O)(=O)c1ccc(CNC(=O)c2ccc3c(c2)nc(O[C@H]2CC[C@@H](C(F)(F)F)CC2)n3CC(C)C)cc1 [BE-4.2, N-(4-(ethylsulfonyl)benzyl)-1-isobutyl-2-(((1s,4s)-4-(trifluoromethyl)cyclohexyl)oxy)-1H-benzo[d]imidazole-5-carboxamide] | > 1000 | < 100
2 | CCn1c(Oc2ccc(C(F)(F)F)cc2)nc2cc(C(=O)NCc3ccc(S(=O)(=O)CC)cc3)ccc21 [BE-5, 1-ethyl-N-(4-(ethylsulfonyl)benzyl)-2-(4-(trifluoromethyl)phenoxy)-1H-benzo[d]imidazole-5-carboxamide] | < 100 | < 100
3 | CCS(=O)(=O)c1ccc(CNC(=O)c2ccc3c(c2)nc(Oc2ccc(C(F)(F)F)cc2)n3C2CC2)cc1 [BE-6, 1-cyclopropyl-N-(4-(ethylsulfonyl)benzyl)-2-(4-(trifluoromethyl)phenoxy)-1H-benzo[d]imidazole-5-carboxamide] | < 100 | < 100
4 | CCS(=O)(=O)c1ccc([C@H](CO)NC(=O)c2ccc3c(c2)nc(Oc2ccc(C(F)(F)F)cc2)n3C2CC2)cc1 [BE-7, (R)-1-cyclopropyl-N-(1-(4-(ethylsulfonyl)phenyl)-2-hydroxyethyl)-2-(4-(trifluoromethyl)phenoxy)-1H-benzo[d]imidazole-5-carboxamide] | < 100 | < 100
5 | CCn1c(Oc2ccc(C(F)(F)F)cc2)nc2cc(C(=O)N[C@@H](CO)c3ccc(S(=O)(=O)CC)cc3)ccc21 [BE-8, (R)-1-ethyl-N-(1-(4-(ethylsulfonyl)phenyl)-2-hydroxyethyl)-2-(4-(trifluoromethyl)phenoxy)-1H-benzo[d]imidazole-5-carboxamide] | < 100 | < 100
6 | CCn1c(Oc2ccc(OC(F)(F)F)cc2)nc2cc(C(=O)N[C@@H](CO)c3ccc(S(=O)(=O)CC)cc3)ccc21 [BE-9, (R)-1-ethyl-N-(1-(4-(ethylsulfonyl)phenyl)-2-hydroxyethyl)-2-(4-(trifluoromethoxy)phenoxy)-1H-benzo[d]imidazole-5-carboxamide] | < 100 | < 100
7 | CCn1c(Oc2ccc(C(F)(F)F)cc2)nc2cc(C(=O)N[C@@H](CN)c3ccc(S(=O)(=O)CC)cc3)ccc21 [BE-11, (R)-N-(2-amino-1-(4-(ethylsulfonyl)phenyl)ethyl)-1-ethyl-2-(4-(trifluoromethyl)phenoxy)-1H-benzo[d]imidazole-5-carboxamide] | < 100 | < 100
8 | CCn1c(OCC2CCC(F)(F)CC2)nc2cc(C(=O)N[C@@H](CO)c3ccc(S(=O)(=O)CC)cc3)ccc21 [BE-12, (R)-2-((4,4-difluorocyclohexyl)methoxy)-1-ethyl-N-(1-(4-(ethylsulfonyl)phenyl)-2-hydroxyethyl)-1H-benzo[d]imidazole-5-carboxamide] | > 1000 | < 100
9 | CCn1c(OCC2CC(F)(F)C2)nc2cc(C(=O)N[C@@H](CO)c3ccc(S(=O)(=O)CC)cc3)ccc21 [BE-13, (R)-2-((3,3-difluorocyclobutyl)methoxy)-1-ethyl-N-(1-(4-(ethylsulfonyl)phenyl)-2-hydroxyethyl)-1H-benzo[d]imidazole-5-carboxamide] | > 1000 | < 100
10 | CCn1c(OCc2ccc(C(F)(F)F)cc2)nc2cc(C(=O)N[C@@H](CO)c3ccc(S(=O)(=O)CC)cc3)ccc21 [BE-14, (R)-1-ethyl-N-(1-(4-(ethylsulfonyl)phenyl)-2-hydroxyethyl)-2-((4-(trifluoromethyl)benzyl)oxy)-1H-benzo[d]imidazole-5-carboxamide] | < 100 | < 100
11 | CCS(=O)(=O)c1ccc([C@H](CO)NC(=O)c2ccc3c(c2)nc(OCc2ccc(C(F)(F)F)cc2)n3C2CC2)cc1 [BE-15, (R)-1-cyclopropyl-N-(1-(4-(ethylsulfonyl)phenyl)-2-hydroxyethyl)-2-((4-(trifluoromethyl)benzyl)oxy)-1H-benzo[d]imidazole-5-carboxamide] | < 100 | < 100
12 | CCS(=O)(=O)c1ccc([C@H](CO)NC(=O)c2ccc3c(c2)nc(OCC2CCC(F)(F)CC2)n3C2CC2)cc1 [BE-16, (R)-1-cyclopropyl-2-((4,4-difluorocyclohexyl)methoxy)-N-(1-(4-(ethylsulfonyl)phenyl)-2-hydroxyethyl)-1H-benzo[d]imidazole-5-carboxamide] | < 100 | < 100
13 | CCn1c(OCC2CC2)nc2cc(C(=O)N[C@@H](CO)c3ccc(S(=O)(=O)CC)cc3)ccc21 [BE-17, (R)-2-(cyclopropylmethoxy)-1-ethyl-N-(1-(4-(ethylsulfonyl)phenyl)-2-hydroxyethyl)-1H-benzo[d]imidazole-5-carboxamide] | > 1000 | < 100
14 | CCS(=O)(=O)c1ccc(CNC(=O)c2ccc3c(c2)nc(C[C@H]2CC[C@H](C(F)(F)F)CC2)n3C2CC2)cc1 [BE-18.1, 1-cyclopropyl-N-(4-(ethylsulfonyl)benzyl)-2-((trans-4-(trifluoromethyl)cyclohexyl)methyl)-1H-benzo[d]imidazole-5-carboxamide] | < 100 | < 100
15 | CCS(=O)(=O)c1ccc(CNC(=O)c2ccc3c(c2)nc(C[C@H]2CC[C@@H](C(F)(F)F)CC2)n3C2CC2)cc1 [BE-18.2, 1-cyclopropyl-N-(4-(ethylsulfonyl)benzyl)-2-((cis-4-(trifluoromethyl)cyclohexyl)methyl)-1H-benzo[d]imidazole-5-carboxamide] | > 1000 | < 100
16 | CCS(=O)(=O)c1ccc(CNC(=O)c2ccc3c(c2)nc(C[C@H]2CC[C@H](C(F)(F)F)CC2)n3CC(C)C)cc1 [BE-19.1, N-(4-(ethylsulfonyl)benzyl)-1-isobutyl-2-(((1r,4r)-4-(trifluoromethyl)cyclohexyl)methyl)-1H-benzo[d]imidazole-5-carboxamide] | < 100 | < 100
17 | CCS(=O)(=O)c1ccc(CNC(=O)c2ccc3c(c2)nc(C[C@H]2CC[C@@H](C(F)(F)F)CC2)n3CC(C)C)cc1 [BE-19.2, N-(4-(ethylsulfonyl)benzyl)-1-isobutyl-2-(((1s,4s)-4-(trifluoromethyl)cyclohexyl)methyl)-1H-benzo[d]imidazole-5-carboxamide] | > 1000 | < 100
18 | CCn1c(C[C@H]2CC[C@H](C(F)(F)F)CC2)nc2cc(C(=O)NCc3ccc(S(=O)(=O)CC)cc3)ccc21 [BE-20, 1-ethyl-N-(4-(ethylsulfonyl)benzyl)-2-(((1r,4r)-4-(trifluoromethyl)cyclohexyl)methyl)-1H-benzo[d]imidazole-5-carboxamide] | < 100 | < 100
19 | CCS(=O)(=O)c1ccc([C@H](CCO)NC(=O)c2ccc3c(c2)nc(C[C@H]2CC[C@H](C(F)(F)F)CC2)n3C2CC2)cc1 [BE-25, 1-cyclopropyl-N-((S)-1-(4-(ethylsulfonyl)phenyl)-3-hydroxypropyl)-2-(((1r,4S)-4-(trifluoromethyl)cyclohexyl)methyl)-1H-benzo[d]imidazole-5-carboxamide] | < 100 | < 100
20 | CCS(=O)(=O)c1ccc(CNC(=O)c2ccc3c(c2)nc(C[C@H]2CC[C@H](C(F)(F)F)CC2)n3CC(C)C)nc1 [BE-26.1, N-((5-(ethylsulfonyl)pyridin-2-yl)methyl)-1-isobutyl-2-(((1r,4r)-4-(trifluoromethyl)cyclohexyl)methyl)-1H-benzo[d]imidazole-5-carboxamide] | > 1000 | < 100
